Target: ATP-dependent translocase ABCB1 (Homo sapiens, UniProt P08183)
Experiment: TP_TRANSPORTER: mRNA expression level of MDR1 was inversely related to the concentration/dose ratio in vivo, recipients of living-donor liver transplantation
Assay type: functional, organism-based

Sequence of ATP-dependent translocase ABCB1 (P08183 whole entry): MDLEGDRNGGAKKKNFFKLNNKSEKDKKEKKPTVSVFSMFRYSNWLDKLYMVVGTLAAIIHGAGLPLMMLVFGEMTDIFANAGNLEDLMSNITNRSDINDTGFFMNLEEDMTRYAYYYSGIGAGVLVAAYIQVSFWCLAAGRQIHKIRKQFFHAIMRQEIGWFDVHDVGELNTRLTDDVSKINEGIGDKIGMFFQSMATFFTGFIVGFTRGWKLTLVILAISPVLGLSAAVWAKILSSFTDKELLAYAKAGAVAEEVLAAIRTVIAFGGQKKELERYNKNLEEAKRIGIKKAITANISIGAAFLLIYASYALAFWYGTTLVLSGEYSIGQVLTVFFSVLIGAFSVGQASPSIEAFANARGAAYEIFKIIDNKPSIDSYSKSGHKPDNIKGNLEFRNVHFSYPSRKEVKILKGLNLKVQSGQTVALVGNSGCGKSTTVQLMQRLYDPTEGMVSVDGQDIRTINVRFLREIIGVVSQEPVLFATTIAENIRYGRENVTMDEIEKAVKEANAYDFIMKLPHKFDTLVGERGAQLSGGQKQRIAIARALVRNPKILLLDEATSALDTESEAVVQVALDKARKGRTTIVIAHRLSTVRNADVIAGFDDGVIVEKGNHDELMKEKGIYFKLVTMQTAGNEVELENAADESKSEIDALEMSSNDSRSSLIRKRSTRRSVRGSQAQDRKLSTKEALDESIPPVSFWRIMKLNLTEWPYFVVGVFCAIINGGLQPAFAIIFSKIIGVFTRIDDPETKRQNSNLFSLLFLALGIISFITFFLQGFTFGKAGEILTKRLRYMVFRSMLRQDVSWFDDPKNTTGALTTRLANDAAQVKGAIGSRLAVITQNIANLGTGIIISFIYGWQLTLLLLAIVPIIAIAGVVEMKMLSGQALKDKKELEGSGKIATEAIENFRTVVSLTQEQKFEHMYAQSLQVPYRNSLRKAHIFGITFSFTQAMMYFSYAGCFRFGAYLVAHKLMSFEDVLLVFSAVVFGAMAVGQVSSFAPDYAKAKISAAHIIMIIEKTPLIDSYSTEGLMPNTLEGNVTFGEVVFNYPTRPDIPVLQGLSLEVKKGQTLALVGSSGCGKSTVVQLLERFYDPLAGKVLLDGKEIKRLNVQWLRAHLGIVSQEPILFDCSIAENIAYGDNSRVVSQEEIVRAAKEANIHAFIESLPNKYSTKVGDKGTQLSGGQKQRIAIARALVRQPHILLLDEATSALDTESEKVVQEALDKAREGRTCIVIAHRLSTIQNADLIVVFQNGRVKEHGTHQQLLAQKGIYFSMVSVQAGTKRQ

Activity: substrate [+]
SMILES: C=CC[C@@H]1/C=C(\C)C[C@H](C)C[C@H](OC)[C@H]2O[C@@](O)(C(=O)C(=O)N3CCCC[C@H]3C(=O)O[C@H](/C(C)=C/[C@@H]3CC[C@@H](O)[C@H](OC)C3)[C@H](C)[C@@H](O)CC1=O)[C@H](C)C[C@@H]2OC [TACROLIMUS ANHYDROUS]
